# Source: ChEMBL document CHEMBL1149045, “Further butenolides from the Caribbean octocoral Pterogorgia citrina” (J Nat Prod, 1994)
# Active and inactive are the calls of the source. No cut-off for these calls is given here.
# Legend:
# Escherichia coli [1] = test: Antimicrobial activity against Escherichia coli at 1 ug/disk; format: functional, organism-based
# Escherichia coli [2] = test: Antimicrobial activity against Escherichia coli at 5 ug/disk; format: functional, organism-based
# Staphylococcus aureus [3] = test: Antimicrobial activity against Staphylococcus aureus at 1 ug/disk; format: functional, organism-based
# Staphylococcus aureus [4] = test: Antimicrobial activity against Staphylococcus aureus at 10 ug/disk; format: functional, organism-based
# Staphylococcus aureus [5] = test: Antimicrobial activity against Staphylococcus aureus at 5 ug/disk; format: functional, organism-based
# Escherichia coli [6] = test: Antimicrobial activity against Escherichia coli at 10 ug/disk; format: functional, organism-based
# HCT-116 = test: Cytotoxicity against human HCT116 cells; format: functional, cell-based
Compound,Activity (Escherichia coli [1]),Activity (Escherichia coli [2]),Activity (Staphylococcus aureus [3]),Activity (Staphylococcus aureus [4]),Activity (Staphylococcus aureus [5]),Activity (Escherichia coli [6]),IC50 (HCT-116)
CC(=O)O[C@@H]1[C@H](C)OC(=O)[C@@H]1CCCCCC/C=C\CCCCCCC1=C[C@H](C)OC1=O,inactive,inactive,inactive,inactive,inactive,inactive,–
CC(=O)O[C@@H]1[C@H](C)OC(=O)[C@@H]1CCCCCCCCCCCCC1=C[C@H](C)OC1=O [ANCEPSENOLIDE ACETATE],inactive,inactive,inactive,inactive,inactive,inactive,> 50 µg/mL
CC(=O)O[C@@H]1[C@H](C)OC(=O)[C@@H]1CCCCCCCCCCCCCCC1=C[C@H](C)OC1=O,inactive,inactive,inactive,inactive,inactive,inactive,–
C[C@@H]1OC(=O)[C@@H](CCCCCCCCCCCCC2=C[C@H](C)OC2=O)[C@H]1O,inactive,inactive,inactive,inactive,inactive,inactive,–
CC(=O)O[C@H]1[C@H](C)OC(=O)[C@H]1CCCCCCCCCCCCCCC1=C[C@H](C)OC1=O,inactive,inactive,inactive,inactive,inactive,inactive,–
CC(=O)O[C@H]1[C@H](C)OC(=O)[C@H]1CCCCCCCCCCCCC1=C[C@H](C)OC1=O,inactive,inactive,inactive,inactive,inactive,inactive,–
C[C@H]1C=C(CCCCCC/C=C\CCCCCCC2=C[C@H](C)OC2=O)C(=O)O1,inactive,inactive,inactive,inactive,inactive,inactive,> 50 µg/mL
C[C@H]1C=C(CCCCCCCCCCCCCCC2=C[C@H](C)OC2=O)C(=O)O1 [HOMOANCEPSENOLIDE],inactive,inactive,inactive,inactive,inactive,inactive,> 50 µg/mL
